A short description of series [1]: retention time on BEH HILIC column (20 min gradient, 0.4 mL/min); higher = later elution. As to conditions: LC: HILIC. The procedure: (§1)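 Reference standards (20-100 uM) were separated by HILIC UPLC (BEH HILIC, 45 °C): acidic pH 3.0 ammonium formate/formic acid for ESI+ and basic pH 9.0 ammonium acetate/ammonia for ESI-. They were analysed on a Synapt G2-Si traveling-wave IMS-QTOF with nitrogen drift gas (WH 30 V; WV 800 m/s in ESI+ and 1000 m/s in ESI-).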

A short description of series [2]: collision cross section (TWIMS, N2) of ion [M-H]-; higher = larger gas-phase ion cross section. As to conditions: ionization: ESI negative; LC: HILIC, pH 9.0 ammonium acetate. As for the experimental part:
as §1

A short description of series [3]: collision cross section (TWIMS, N2) of ion [M+H-H2O]+; higher = larger gas-phase ion cross section. To be noted: ionization: ESI positive; LC: HILIC, pH 3.0 ammonium formate. The procedure: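 Reference standards (20-100 uM) were separated by HILIC UPLC (BEH HILIC, 45 °C): acidic pH 3.0 ammonium formate/formic acid for ESI+ and basic pH 9.0 ammonium acetate/ammonia for ESI-. They were analysed on a Synapt G2-Si traveling-wave IMS-QTOF with nitrogen drift gas (WH 30 V; WV 800 m/s in ESI+ and 1000 m/s in ESI-). CCS (TWCCSN2, Å2) was calibrated with Major Mix IMS/TOF and LockCCS leucine enkephalin; inter-day RSD was <1%.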

Series [4] is described as follows: collision cross section (TWIMS, N2) of ion [M+H]+; higher = larger gas-phase ion cross section. As to conditions: ionization: ESI positive; LC: HILIC, pH 3.0 ammonium formate. The procedure:
as §1

Where [5] appears, read: ionization: ESI negative, pH 9.0 ammonium acetate.
Setting [6] is: ionization: ESI positive, pH 3.0 ammonium formate.

Molecules are shown by their SMILES.

On to `N=C(NCCC[C@H](N)C(=O)O)N[C@@H](CC(=O)O)C(=O)O` [Arginosuccinic acid], for which the “retention time on BEH HILIC column” value in series [1] (setting [5]) was 12.7 min; in series [1] (setting [6]), 11.2 min. Also, the collision cross section was 164.65 Å² in series [2] and 160.05 Å² in series [3].
On the same counts, the results for `O=C(O)c1cc(O)ccc1O` [Gentisic acid] are 1.41 min, 1.38 min, 126.41 Å² and 126.57 Å².
Take `Cc1c[nH]c(=O)[nH]c1=O` [Thymine]: the results for the “retention time on BEH HILIC column” value in series [1] (setting [5]) and in series [1] (setting [6]) were 1.03 min and 1.05 min, respectively. For the same compound, the results for the collision cross section in series [2], in series [4] and in series [3] were 120.89 Å², 120.81 Å² and 122.06 Å², respectively.
With `O=c1cc[nH]c(=O)[nH]1` [Uracil], the “retention time on BEH HILIC column” value in series [1] (setting [5]) and in series [1] (setting [6]) was 1.08 min each time. The collision cross section in series [2] was found to be 115.77 Å²; in series [4], 120.27 Å²; in series [3] it was 120.58 Å².
For the compound `O=C(O)[C@H]1O[C@H](O)[C@H](O)[C@@H](O)[C@@H]1O` [Glucuronic acid], the “retention time on BEH HILIC column” value turned out to be 8.46 min in series [1] (setting [5]) and 0.72 min in series [1] (setting [6]). In addition, the collision cross section is listed as 129.91 Å² in series [2] and 134.39 Å² in series [3].
As to `C/C(=C/C(=O)O)C(=O)O` [Citraconic acid], the “retention time on BEH HILIC column” value in series [1] (setting [5]) and in series [1] (setting [6]) was 0.99 min each time. Also, the values for the collision cross section in series [2] and in series [3] were 120.54 Å² and 124.18 Å², respectively.
For the compound `O=C(O)CNC(=O)Cc1ccccc1` [Phenylacetylglycine], the results for the “retention time on BEH HILIC column” value in series [1] (setting [5]) and in series [1] (setting [6]) were 2.16 min and 2.11 min, respectively. Further, the collision cross section in series [2] was 146.28 Å²; in series [4] it was 142.08 Å²; in series [3], 138.2 Å².
Take `Nc1c(O)cccc1C(=O)O` [3-hydroxyanthranilic acid]: the “retention time on BEH HILIC column” value in series [1] (setting [5]) stood at 1.12 min; in series [1] (setting [6]) it was 0.9 min. For the same compound, the values for the collision cross section in series [2] and in series [3] were 126.47 Å² and 121.78 Å², respectively.
On the same counts, the results for `CNC[C@H](O)c1ccc(O)c(O)c1` [Epinephrine] are 5.61 min, 5.91 min, 140.21 Å² and 136.45 Å².
As for `CCCCCC/C=C\CCCCCCCC(=O)O` [Palmitoleic acid], the “retention time on BEH HILIC column” value in series [1] (setting [5]) stood at 1.03 min; in series [1] (setting [6]), 0.79 min. The collision cross section in series [2] came out at 173.54 Å²; in series [4], 175.21 Å²; in series [3], 161.08 Å².
In the case of `CN(CC(=O)O)C(=N)N` [Creatine], the “retention time on BEH HILIC column” value in series [1] (setting [6]) is 7.83 min. The collision cross section is reported as 122.23 Å² in series [4] and 122.05 Å² in series [3].
Regarding `COc1cc([C@H](O)C(=O)O)ccc1O` [Vanillylmandelic acid], the “retention time on BEH HILIC column” value stood at 4.41 min in series [1] (setting [5]) and 2.72 min in series [1] (setting [6]). In addition, the collision cross section in series [2] is given as 144.75 Å²; in series [3], 135.63 Å².
For `O=C(O)c1ccc(O)cc1` [4-hydroxybenzoic acid] the same measures were 0.67 min, 0.73 min, 123.01 Å² and 124.91 Å².
Turning to `O=C(O)c1cccnc1C(=O)O` [Quinolinic acid], the “retention time on BEH HILIC column” value was 12.7 min in series [1] (setting [5]) and 2.56 min in series [1] (setting [6]). Also, the collision cross section in series [2] is reported as 128.56 Å²; in series [3] it was 130.12 Å².

Source of the values: the supplement of paper PMC11127212.
